Each structure is given as a SMILES string.

The conditions of data set [1]: thermal decomposition of the acid; cited from earlier work.
For data set [2] the following is noted: nicotine:tartaric acid 1:2; in PG or VG or any mixture of PG and VG at ambient conditions. An excerpt: In some embodiments, acids that have poor solubility in the composition constituents are inappropriate for use in certain embodiments of the compositions herein. […] As used herein, weight percentage (w/w) refers to the weight of the individual component over the weight of the total formulation.

With `O=C(O)CC(O)(CC(=O)O)C(=O)O` [citric acid], the decomposition temperature in data set [1] was 175 °C.
As to `O=C(O)CC(O)C(=O)O` (stereo not drawn) [malic acid], the decomposition temperature in data set [1] was 150 °C.
Regarding `CN1CCCC1c1cccnc1.O=C(O)C(O)C(O)C(=O)O` (stereo not drawn) [nicotine bitartrate], the “concentration at which no solution is produced” value in data set [2] is < 0.5 % (w/w) nicotine.

The values above are taken from patent publication US12167744B2, “Nicotine liquid formulations for aerosol devices and methods thereof” (JUUL Labs, Inc., priority 2013, dated 2024).
